In US20030096264A1, “Multi-parameter high throughput screening assays (MPHTS)” (Psychiatric Genomics, Inc., priority 2001, published 2003):

System: rat (rattus norvegicus) neuronal cells
Test: Microarray expression profile of primary rat cortical neurons incubated with valproate
Assay type: cell-based
Conditions: 0.5 mM valproate, 3 days
Source text: This example describes experiments, which analyzed changes in the expression profile for rat (rattus norvegicus) neuronal cells induced by valproate, a drug used clinically to treat neuropsychiatric disorders such as bipolar disorder. […] Expression profiles for these genes are compared to expression profiles for orthologous genes in human schizophrenia patients.
Primary neuron cells were isolated from E19 rat embryos and cultured as follows. First, the cortex was dissected from each embryo and placed in HBSS solution. The HBSS solution was subsequently removed and replaced with 5 ml papain solution at a concentration of 10 units per ml. The cortex was then incubated in the papain solution for 10 minutes and at 37° C. After incubation, the Papain solution was removed and 10% NuSerum media (Becton Dickinson, Bedford Mass.) was added in its place. The cortex was then centrifuged at 1000 rpm for 10 minutes, after which time the solution was removed and 1 ml of media containing 0.1% DNase was added. Cells were titurated immediately to break up the tissue. The volume of the cell suspensions was brought up to 15 ml and the cells were counted.
Approximately 4×10^6 cells were plated per 10 cm dish, in NeuroBasal A (Invitrogen Corp., Carlsbad Calif.) medium containing B27 and insulin (25 μg/ml). The cell cultures were incubated in a humidified incubator with 5% CO2 and at 37° C. The culture media were changed every 2 days. Cells were incubated in 0.5 mM valproate for 3 days. Control cultures were also prepared and incubated under the same conditions (including the carrier DMSO) but without valproate.
mRNA was extracted from each group of cultures and expression profiles were measured on microarrays according to standard techniques (see the Detailed Description section, infra). Data from duplicate microarrays was statistically evaluated to identify genes that are differentially expressed in the presence of valproate, relative to expression levels in the absence of valproate.
Table 1, below, lists the twelve genes identified in these experiments as being differentially expressed in the presence of valproate, relative to its expression level in the absence of valproate. These genes were identified using a Rat Toxicology array from Incyte (Palo Alto, Calif.). Each gene is listed in Table 1 by its common or popular name, along with the GenBank Accession and Gene Identification (GI) numbers of the rat gene whose expression level was evaluated in these experiments. The “expression ratio” measured for each gene is also specified. Specifically, the expression ratio, Φ, was calculated using the formula: [formula]
where Ev is the expression level measured in cells incubated with valproate and Eo is the expression level in the absence of valproate.

## CCCC(CCC)C(=O)O [valproate]
Vs no valproate, M22357 SEQ ID NO: 1
  expression ratio Φ: myelin-associated glycoprotein (MAG): 2.16
AF178845 SEQ ID NO: 5
  expression ratio Φ: calmodulin: −1.95
AY004290 SEQ ID NO: 4
  expression ratio Φ: SCG10: −1.43
D25221 SEQ ID NO: 11
  expression ratio Φ: selenoprotein P: 1.51
J03753 SEQ ID NO: 12
  expression ratio Φ: plasma membrane calcium ATPase: −1.36
L21191 SEQ ID NO: 3
  expression ratio Φ: GAP-43: −1.88
M18630 SEQ ID NO: 2
  expression ratio Φ: 2′,3′-cyclic nucleotide-3′ phosphodiesterase (CNPI): 1.92
M29275 SEQ ID NO: 6
  expression ratio Φ: calcineurin A: −1.43
M75148 SEQ ID NO: 8
  expression ratio Φ: kinesin light chain C: −1.53
M86443 SEQ ID NO: 10
  expression ratio Φ: hypoxanthine-guanine phosphoribosyltransferase: −1.37
U09567 SEQ ID NO: 9
  expression ratio Φ: cysteine-rich protein: 1.49
U48245 SEQ ID NO: 7
  expression ratio Φ: protein kinase C-binding protein NELL2: −1.7
